Results: patent publication US20260256699A1, “BIOACTIVE MICROSPHERE AND METHOD FOR PREPARATION THEREOF” (priority 2021, published 2026)

Assay: Stability of vitamin D2 in milk boiled twice (relative assay)
Format: physicochemical
Experimental: In an example, the effect of bioactive microsphere of the present disclosure on the stability of bioactive, when subjected to the deteriorating effect of processing parameter such as heating, was studied. The stability of vitamin D2 was determined by heating the milk containing the bioactive microsphere as prepared in Example 1, and the milk containing pure vitamin D2, i.e., control vitamin D2.
For the purpose of this example, both the vitamin D2 containing milk were boiled twice, and the amount of vitamin D2 was determined after second boiling, as shown in Table 1. The difference in the amount of vitamin D2 in the milk before boiling, and after the second boiling, illustrated the deteriorating effect of heat on the vitamin D2.

Stability of vitamin D2 in milk on boiling (in words) (milk, boiled two times): deactivated on boiling
% Relative assay Before boiling (%) (vitamin D2 in milk, before boiling): 100%
% Degradation (vitamin D2 in milk, before boiling vs after second boiling): 65%
% Relative assay After second boiling (%) (vitamin D2 in milk, boiled twice, after second boiling): 35%
SMILES: C=C1CC[C@H](O)C/C1=C/C=C1\CCC[C@]2(C)[C@@H]([C@H](C)/C=C/[C@H](C)C(C)C)CC[C@@H]12 [Control vitamin D2, vitamin D2]
